Test results: US10703733B2, “MCL-1 inhibitors” (Gilead Sciences, Inc., priority 2018, dated 2020)
Each block holds one compound with its values, some of them ahead of it.

Experiments:
[1] = test system: SKBR3 cells; assay: SKBR3 Cell Viability Assay (CellTiter Glo); type: cell-based; settings: Homo sapiens, SK-BR-3, 72 h, CellTiter Glo luminescence, read-out: MCL-1 CV SKBR3 EC50
Procedure, shortened: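 Viability read as CellTiter Glo luminescence after 72 h of compound exposure at 37° C./5% CO2, using 6,000 SKBR3 cells per well in McCoy 5A with 10% FBS. Percent inhibition scaled between DMSO wells and 10 μM puromycin wells.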

[2] = target: MCL-1/Bim interaction (recombinant human MCL-1 protein, residues 171-327; biotinylated human Bim peptide, residues 51-76) (Homo sapiens (Human), UniProt Q07820); assay: MCL-1/Bim Binding AlphaLISA Assay; settings: 0.0625 nM 6xHis-Mcl-1 (171-327), 0.0625 nM biotinylated-Bim peptide
Chain of MCL-1/Bim interaction (recombinant human MCL-1 protein, residues 171-327; biotinylated human Bim peptide, residues 51-76) (Q07820 171-327): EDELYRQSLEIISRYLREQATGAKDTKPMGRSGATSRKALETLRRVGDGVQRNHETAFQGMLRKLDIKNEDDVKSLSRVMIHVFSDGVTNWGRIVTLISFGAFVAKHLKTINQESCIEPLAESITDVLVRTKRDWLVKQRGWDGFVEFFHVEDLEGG
Procedure, shortened: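 Protein 0.0625 nM + cpd, 1 h; add biotin-Bim 0.0625 nM, 2 h; acceptor beads 1 h; donor beads 1 h; AlphaScreen read. Buffer 20 mM Hepes pH 7.5, 150 mM NaCl, 1 mM DTT.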

Compound: CO[C@H]1/C=C/C[C@H](C)C[S@@](=O)(NC(=O)N[C@H]2C[C@H](OC)C2)=NC(=O)c2ccc3c(c2)N(C[C@@H]2CC[C@H]21)C[C@@]1(CCCc2cc(Cl)ccc21)CO3 [Example 150]
EC50 [1]: 39.3 nM | IC50 [2]: 0.071 nM

Compound: CC[C@H]1C/C=C/[C@H](OC)[C@@H]2CC[C@H]2CN2C[C@@]3(CCCc4cc(Cl)ccc43)COc3ccc(cc32)C(=O)N=[S@](=O)(NC(=O)c2cnn(C)c2)C1 [Example 201]
EC50 [1]: 103 nM | IC50 [2]: 0.042 nM

Compound: CO[C@H]1/C=C/C[C@H](C)C[S@@](=O)(NC(=O)c2ccn(C3CC3)c2)=NC(=O)c2ccc3c(c2)N(C[C@@H]2CC[C@H]21)C[C@@]1(CCCc2cc(Cl)ccc21)CO3 [Example 156]
EC50 [1]: 145 nM | IC50 [2]: 0.111 nM

Compound: CO[C@H]1/C=C/C[C@H](C)C[S@@](=O)(NC(=O)[C@H]2Cc3ccccc3CO2)=NC(=O)c2ccc3c(c2)N(C[C@@H]2CC[C@H]21)C[C@@]1(CCCc2cc(Cl)ccc21)CO3 (single isomer, unassigned) [Example 143]
EC50 [1]: 219 nM | IC50 [2]: 0.173 nM

Compound: CO[C@H]1/C=C/C[C@H](C)C[S@@](=O)(NC(=O)c2cc(CN3CCOCC3)n(C)c2)=NC(=O)c2ccc3c(c2)N(C[C@@H]2CC[C@H]21)C[C@@]1(CCCc2cc(Cl)ccc21)CO3 [Example 308]
EC50 [1]: 16.1 nM | IC50 [2]: 0.031 nM

Compound: COc1nn(C2CC2)cc1C(=O)N[S@@]1(=O)=NC(=O)c2ccc3c(c2)N(C[C@@H]2CC[C@H]2[C@@H](OC)/C=C/C[C@H](C)C1)C[C@@]1(CCCc2cc(Cl)ccc21)CO3 [Example 262]
EC50 [1]: 85.8 nM | IC50 [2]: 0.056 nM

Compound: COCCn1cc(C(=O)N[S@@]2(=O)=NC(=O)c3ccc4c(c3)N(C[C@@H]3CC[C@H]3[C@@H](OC)/C=C/C[C@H](C)C2)C[C@@]2(CCCc3cc(Cl)ccc32)CO4)cc1COC [Example 337]
EC50 [1]: 86.4 nM | IC50 [2]: 0.05 nM

Compound: CO[C@H]1/C=C/C[C@H](C)C[S@@](=O)(NC(=O)N2CCN3CCOC[C@H]3C2)=NC(=O)c2ccc3c(c2)N(C[C@@H]2CC[C@H]21)C[C@@]1(CCCc2cc(Cl)ccc21)CO3 [Example 334]
EC50 [1]: 48.6 nM | IC50 [2]: 0.041 nM

Compound: COCC1(OC)CN(C(=O)N[S@@]2(=O)=NC(=O)c3ccc4c(c3)N(C[C@@H]3CC[C@H]3[C@@H](OC)/C=C/C[C@H](C)C2)C[C@@]2(CCCc3cc(Cl)ccc32)CO4)C1 [Example 274]
EC50 [1]: 82.6 nM | IC50 [2]: 0.043 nM

Compound: CO[C@H]1/C=C/C[C@H](C)C[S@@](=O)(NC(=O)N[C@@H]2C[C@H]2c2cnn(C)c2)=NC(=O)c2ccc3c(c2)N(C[C@@H]2CC[C@H]21)C[C@@]1(CCCc2cc(Cl)ccc21)CO3 [Example 129]
EC50 [1]: 64.7 nM | IC50 [2]: 0.077 nM

More lines, now with the values ahead:

EC50 [1]: 152 nM | IC50 [2]: 0.081 nM
Compound: CCNC(=O)N[S@@]1(=O)=NC(=O)c2ccc3c(c2)N(C[C@@H]2CC[C@H]2[C@@H](OC)/C=C/C[C@H](C)C1)C[C@@]1(CCCc2cc(Cl)ccc21)CO3 [Example 421]

EC50 [1]: 17.3 nM | IC50 [2]: 0.019 nM
Compound: COc1nn(C)cc1C(=O)N[S@@]1(=O)=NC(=O)c2ccc3c(c2)N(C[C@@H]2CC[C@H]2[C@@H](O)/C=C\C[C@H](C)[C@H]1C)C[C@@]1(CCCc2cc(Cl)ccc21)CO3 [Example 343]

EC50 [1]: 84.7 nM | IC50 [2]: 0.041 nM
Compound: CO[C@H]1/C=C/C[C@H](C)C[S@@](=O)(NC(=O)N2CC(n3ccnc3)C2)=NC(=O)c2ccc3c(c2)N(C[C@@H]2CC[C@H]21)C[C@@]1(CCCc2cc(Cl)ccc21)CO3 [Example 348]

EC50 [1]: 374 nM | IC50 [2]: 0.223 nM
Compound: CO[C@H]1/C=C/C[C@H](C)C[S@@](=O)(NC(=O)Nc2ccccn2)=NC(=O)c2ccc3c(c2)N(C[C@@H]2CC[C@H]21)C[C@@]1(CCCc2cc(Cl)ccc21)CO3 [Example 441]

EC50 [1]: 22.4 nM | IC50 [2]: 0.046 nM
Compound: COC1CN(C(=O)N[S@@]2(=O)=NC(=O)c3ccc4c(c3)N(C[C@@H]3CC[C@H]3[C@@H](OC)/C=C/[C@H](OC)[C@H](C)C2)C[C@@]2(CCCc3cc(Cl)ccc32)CO4)C1 [Example 375]

EC50 [1]: 222 nM | IC50 [2]: 0.209 nM
Compound: COc1nn(C)cc1C(=O)N[S@@]1(=O)=NC(=O)c2ccc3c(c2)N(C[C@@H]2CC[C@H]2[C@@H](N2CC(OC)C2)/C=C/C[C@H](C)C1)C[C@@]1(CCCc2cc(Cl)ccc21)CO3 [Example 464]
